System: influenza type A virus, Cygnus columbianus/Shimane/499/83 (H5N3) (avian strain)

[O]=[Ca] [Sample 1, calcium oxide]
antiviral effect (in words, comparison of samples): high antiviral effect
